In PMC10968976, “Targeting CDK9 in Cancer: An Integrated Approach of Combining In Silico Screening with Experimental Validation for Novel Degraders” (Current Issues in Molecular Biology, 2024):
pEC50: −log10 of the molar value. Where two headings read alike, the source gives them in different places.

How the values were obtained:
[1] = system: NCI-H358 cells; experiment: Cell viability (cell-titer-glo), NCI-H358; assay type: cell-based; conditions: Homo sapiens, NIH H-358 cell line, 48 to 72 h, read-out: Estimated EC50
Procedure: (§1) The cell lines used in this study were purchased from ATCC (https://www.atcc.org, accessed on 18 December 2023) and maintained under standard conditions at 37 °C with a 5% CO2 atmosphere. NCI-H-358 cells were cultivated in 1X RPMI 1640 medium, while MIA-PaCa2 cells were cultured using 1X DMEM. Both culture media were supplemented with 10% fetal bovine serum and 1X Penicillin/Streptomycin (Gibco). For culturing the Melma-3M cells, IMDM media fortified with 20% fetal bovine serum and 1X Penicillin/Streptomycin was used. […]
(§2) Briefly, for cell viability experiments, after splitting, cells from each respective cell line were plated onto 96-well plates (MSP, Cat # CT-229185) at a density of about 1 × 10^4 cells/mL and 200 µL per well using the appropriate cell culture media after about 24 h at 37 °C, the cell media in each 96-well plate were replaced with media containing the various test compounds at varying concentrations. […] Each plate was gently mixed for ca. 10 min at room temperature and then transferred to a plate reader (Bio-Tek, Synergy HTX, Winooski, VT, USA, multimode reader) for chemiluminescence measurement as a proportional indicator of cell viability.
(§3) TB003 and TB008 have also been evaluated for cell growth inhibition and killing using two cell lines, NCI-H358, a non-small cell lung carcinoma-derived cell line, and MIA-PaCa-2, a pancreatic carcinoma-derived cell line. […]

[2] = system: MIA-PaCa-2 cells; experiment: Cell viability (cell-titer-glo), MIA-PaCa-2; assay type: cell-based; conditions: MIA-PaCa 2 cell line, 48 to 72 h, read-out: Estimated EC50
Procedure: as §1, §2, §3

| pEC50 [1] | pEC50 ([2]; Homo sapiens) | Structure (SMILES) | pEC50 [2] |
| --- | --- | --- | --- |
| 4.12 | 5.00 | CC(=O)O[C@H]1C(=O)[C@@]2(C)[C@H]([C@H](OC(=O)c3ccccc3)[C@]3(O)C[C@H](OC(=O)[C@H](O)[C@@H](NC(=O)c4ccccc4)c4ccccc4)C(C)=C1C3(C)C)[C@]1(OC(C)=O)CO[C@@H]1C[C@@H]2O [Paclitaxel, paclitaxel] | – |
| – | – | O=C1[O][Pt]2([NH][C@@H]3CCCC[C@H]3[NH]2)[O]C1=O [Oxaliplatin, oxaliplatin] | 4.00 |
